Measured values: article PMC12251482, “Floridoside Phosphotriester Derivatives: Synthesis and Inhibition of Human Neutrophils’ Oxidative Burst” (Molecules, 2025)

Assay: Neutrophils' apoptosis versus necrosis, Annexin V/PI flow cytometry
Assay type: cell-based, human
Settings: human; 50 μM; representative plot, Figure 2; read-out: Q2-LL, viable cells (AV−/PI−)
Experimental: The effect of the compounds under study on neutrophil viability was evaluated using flow cytometry. This assessment involved staining with Annexin V (AV) and propidium iodide (PI) from the BD Pharmingen™ FITC Annexin V Apoptosis Detection Kit, following the manufacturer’s protocol. […] Afterwards, the content of each well was transferred to a conical microtube and centrifuged at 400× g, at 20 °C, for 5 min. The neutrophils’ pellets were resuspended in PBS and centrifuged again under the previous conditions. The supernatant was removed, and the solution of Annexin V and PI from the kit was added, resuspending the pellet. The neutrophils were incubated in the dark at room temperature for 15 min and then diluted (dilution factor = 6) with the diluted binding buffer. […] In the flow cytometer, the fluorescence signal of at least 10,000 neutrophils per sample was collected in logarithmic mode and followed in channels 1 and 3. A polygon gate, corresponding to the neutrophil’s population, was drawn according to the light-scattering properties of neutrophils in a forward versus scatter plot. Thus, debris and other blood cells were unaccounted for in the samples. The green fluorescence corresponding to Annexin V was monitored in channel 1 and plotted as a histogram of FL1 staining, whereas the fluorescence corresponding to PI was monitored in channel 3 and plotted in the same histogram as FL3 staining. Neutrophils’ cell death was expressed as a relative percentage of viable, apoptotic, late apoptotic, and necrotic cells compared to a negative control (untreated cells).
The eﬀect of the compounds under study on neutrophil viability was evaluated using ﬂow cytometry.
This assessment involved staining with Annexin V (AV) and propidium iodide (PI) from the BD Pharmingen™ FITC Annexin V Apoptosis Detection Kit, following the manufacturer's protocol. Neutrophils (1 x10^6 cells/mL) were incubated in a 24-well plate in the dark at 37 °C for 45 minutes with the positive control (Triton X-100, […]
Afterwards, the content of each well was transferred to a conical microtube and centrifuged at 400g, at 20 °C, for 5 minutes. The neutrophils’ pellets were resuspended in PBS and centrifuged again under the previous conditions. The supernatant was removed, and the solution of Annexin V and PI from the kit was added, resuspending the pellet. The neutrophils were incubated in the dark at room temperature for 15 minutes and then diluted (dilution factor = 6) with the diluted binding buﬀer. The measurements were performed in a n Accuri C6 ﬂow cytometer (BD, Becton, Dickinson and Company, Franklin Lakes, NJ, USA), and the results were treated with BD Accuri™ C6 software. In the ﬂow cytometer, the ﬂuorescence signal of at least 10,000 neutrophils per sample was collected in logarithmic mode and followed in channels 1 and 3. A polygon gate, corresponding to the neutrophil’s population, was drawn according to the light-scattering properties of neutrophils in a forward vs scatter plot. Thus, debris and other blood cells were unaccounted for in the samples.
The green ﬂuorescence corresponding to Annexin V was monitored in channel 1 and plotted as a histogram of FL1 staining, whereas the ﬂuorescence corresponding to PI was monitored in channel 3 and plotted in the same histogram as FL3 staining. Neutrophils’ cell death was expressed as a relative percentage of viable, apoptotic, late apoptotic, and necrotic cells compared to a negative control (untreated cells). […]

Compound `CCCCCCCCCCCC(=O)OCC(CO)OC1OC(COP(=O)(OCCN)OCCN)C(O)C(O)C1O` (stereo not shown) [Compound 1h, 2-(6-(bis(2-Aminoethoxy))phosphoryl)galactopyranosyl-3-hydroxypropyl dodecanoate] has a viability at 45 min, 50 µM of 53%.
